Laboratory results published in the CheMixHub ionic liquid set.

Assay: xn = mol fraction of the nth substance listed

CC[n+]1ccn(C)c1.O=S(=O)([N-]S(=O)(=O)C(F)(F)F)C(F)(F)F + COC(=O)OC
viscosity [mPa·s], 101.3 kPa
Conditions | 288.15 K | 293.15 K | 298.15 K | 303.15 K | 308.15 K | 313.15 K
x1 = 0.00265 | 0.69 | 0.644 | 0.604 | 0.567 | 0.534 | 0.504
x1 = 0.005572 | 0.717 | 0.67 | 0.627 | 0.588 | 0.554 | 0.523
x1 = 0.006266 | 0.73 | 0.681 | 0.637 | 0.599 | 0.563 | 0.532
x1 = 0.006515 | 0.73 | 0.682 | 0.637 | 0.598 | 0.563 | 0.531
x1 = 0.008405 | 0.748 | 0.698 | 0.653 | 0.612 | 0.576 | 0.543
x1 = 0.01068 | 0.778 | 0.724 | 0.676 | 0.634 | 0.596 | 0.562
x1 = 0.01231 | 0.795 | 0.74 | 0.691 | 0.648 | 0.609 | 0.573
x1 = 0.01323 | 0.813 | 0.757 | 0.707 | 0.662 | 0.623 | 0.587
x1 = 0.01407 | 0.821 | 0.763 | 0.713 | 0.668 | 0.628 | 0.591
x1 = 0.01462 | 0.823 | 0.766 | 0.716 | 0.671 | 0.63 | 0.594
x1 = 0.01829 | 0.861 | 0.801 | 0.747 | 0.699 | 0.656 | 0.618
x1 = 0.01968 | 0.873 | 0.812 | 0.757 | 0.708 | 0.664 | 0.626
x1 = 0.02012 | 0.879 | 0.817 | 0.762 | 0.713 | 0.669 | 0.63
x1 = 0.02014 | 0.878 | 0.816 | 0.76 | 0.712 | 0.667 | 0.628
x1 = 0.02562 | 0.928 | 0.861 | 0.804 | 0.751 | 0.704 | 0.662
x1 = 0.03021 | 0.956 | 0.886 | 0.824 | 0.769 | 0.72 | 0.676
x1 = 0.03102 | 0.964 | 0.893 | 0.83 | 0.774 | 0.725 | 0.68
x1 = 0.03106 | 0.961 | 0.89 | 0.828 | 0.773 | 0.723 | 0.68
x1 = 0.03348 | 0.982 | 0.91 | 0.846 | 0.79 | 0.739 | 0.694
x1 = 0.03766 | 1.018 | 0.943 | 0.877 | 0.818 | 0.765 | 0.718
x1 = 0.04567 | 1.086 | 1.005 | 0.934 | 0.871 | 0.814 | 0.764
x1 = 0.04728 | 1.111 | 1.029 | 0.945 | 0.881 | 0.824 | 0.773
x1 = 0.05348 | 1.15 | 1.064 | 0.988 | 0.92 | 0.86 | 0.807
x1 = 0.05932 | 1.205 | 1.113 | 1.033 | 0.962 | 0.898 | 0.841

CO + CCCCCCCCn1cc[n+](C)c1.[Cl-]
Conditions | viscosity [mPa·s]
313.15 K, 101 kPa, x1 = 1 | 0.444

C=CC[n+]1ccn(C)c1.O=S(=O)([N-]S(=O)(=O)C(F)(F)F)C(F)(F)F + CCCO
298.15 K, 100 kPa
Conditions | viscosity [mPa·s]
x1 = 0.2 | 5.11
x1 = 0.5 | 10.41
x1 = 0.7 | 16.23
x1 = 0.8 | 20.34
x1 = 0.9 | 25.56

C[N+](C)(C)Cc1ccccc1.[Cl-] + O
electrical conductivity [S/m], 101.3 kPa, frequency 0.001 MHz
Conditions | 298.15 K | 308.15 K | 318.15 K
x1 = 1.802e-05 | 0.0137 | 0.0183 | 0.0233
x1 = 5.406e-05 | 0.0295 | 0.0398 | 0.0456
x1 = 9.009e-05 | 0.0457 | 0.0565 | 0.0643

viscosity [mPa·s]
Conditions | 298.15 K | 303.15 K | 308.15 K | 318.15 K
100 kPa, x1 = 0.0004874 | – | 0.813 | – | –
101.3 kPa, x1 = 1.802e-05 | 0.88 | – | – | 0.611
101.3 kPa, x1 = 5.406e-05 | – | – | 0.747 | 0.627
101.3 kPa, x1 = 9.009e-05 | 0.914 | – | 0.766 | 0.646

CC[n+]1ccn(C)c1.O=S(=O)([N-]S(=O)(=O)C(F)(F)F)C(F)(F)F + [I-].[Li+]
101 kPa, x1 = 1
Conditions | electrical conductivity [S/m]
288.15 K | 0.611
298.15 K | 0.883
333.15 K | 2.18
